pIC50: −log10 of the molar value. Counter-ions that a name gives are not always drawn. Like-named read-outs stand apart in the source and are kept apart here.
How the values were obtained:
Human JAK1 [1] = target: T1, Human JAK1 (Homo sapiens (Human), UniProt P23458); assay: In vitro kinase inhibition test, JAK1 (33P-ATP filter scintillation); format: biochemical; details: compound at 1 uM; read-out: JAK1 kinase-phosphorylation inhibitory level (% inhibition)
Human JAK2 [2] = target: T2, Human JAK2 (Homo sapiens (Human), UniProt O60674); assay: In vitro kinase inhibition test, JAK2 (33P-ATP filter scintillation); format: biochemical; details: compound at 1 uM; read-out: JAK2 kinase-phosphorylation inhibitory level (% inhibition)
Human JAK3 [3] = target: T3, Human JAK3 (Homo sapiens (Human), UniProt P52333); assay: In vitro kinase inhibition test, JAK3 (33P-ATP filter scintillation); format: biochemical; details: compound at 1 uM; read-out: JAK3 kinase-phosphorylation inhibitory level (% inhibition)
Human TYK2 [4] = target: T4, Human TYK2 (Homo sapiens (Human), UniProt P29597); assay: In vitro kinase inhibition test, TYK2 (33P-ATP filter scintillation); format: biochemical; details: compound at 1 uM; read-out: TYK2 kinase-phosphorylation inhibitory level (% inhibition)
DBA/1J mice = assay: Collagen-induced arthritis (CIA) model, hind paw edema volume; format: in vivo, mouse; details: 50 mg/kg oral once a day
Experimental: 2. Collagen-induced Arthritis (CIA) Model
DBA/1J mice (6 weeks old, male) were purchased from Japan SLC, Inc., and maintained under controlled lighting in a 12-hour light/dark cycle (07:00-19:00). The temperature was maintained at about 22° C., and the mice were allowed to freely have feed and drinking water.
Type II collagen (dissolved in 0.05 M acetic acid (2 mg/mL)) was kept at 4° C. prior to induction. On the first day of induction, prior to a first immunization, a complete Freund's adjuvant and type II collagen in an equal ratio were homogenized in a cooled tube using a homogenizer to obtain an emulsion of the type II collagen and the Freund's adjuvant. 0.1 mL of the emulsion was injected into mouse tails for the first immunization. […]
Therapeutic efficacy of the compounds according to embodiments was determined using a collagen-induced mouse animal model. […]
The degree of arthritic disease was determined based on the degree of paw edema obtained by measuring a volume of mouse hind paws of the experimental animals. A volume change in the hind paws was measured using a volume measuring flowmeter (Plethysmometer, Havard apparatus, USA, Cat no. 760220), wherein the volume was measured by putting the mouse hind legs into a measurement cell, from knee to paw. The volumes of both paws were measured, and a larger volume value between the two was used as a representative value. […]

Human JAK1 [5] = target: T1, Human JAK1; assay: In vitro kinase inhibition test, JAK1 (33P-ATP filter scintillation); format: biochemical
Human JAK2 [6] = target: T2, Human JAK2; assay: In vitro kinase inhibition test, JAK2 (33P-ATP filter scintillation); format: biochemical
Human JAK3 [7] = target: T3, Human JAK3; assay: In vitro kinase inhibition test, JAK3 (33P-ATP filter scintillation); format: biochemical
Human TYK2 [8] = target: T4, Human TYK2; assay: In vitro kinase inhibition test, TYK2 (33P-ATP filter scintillation); format: biochemical

T1 sequence (P23458 whole entry): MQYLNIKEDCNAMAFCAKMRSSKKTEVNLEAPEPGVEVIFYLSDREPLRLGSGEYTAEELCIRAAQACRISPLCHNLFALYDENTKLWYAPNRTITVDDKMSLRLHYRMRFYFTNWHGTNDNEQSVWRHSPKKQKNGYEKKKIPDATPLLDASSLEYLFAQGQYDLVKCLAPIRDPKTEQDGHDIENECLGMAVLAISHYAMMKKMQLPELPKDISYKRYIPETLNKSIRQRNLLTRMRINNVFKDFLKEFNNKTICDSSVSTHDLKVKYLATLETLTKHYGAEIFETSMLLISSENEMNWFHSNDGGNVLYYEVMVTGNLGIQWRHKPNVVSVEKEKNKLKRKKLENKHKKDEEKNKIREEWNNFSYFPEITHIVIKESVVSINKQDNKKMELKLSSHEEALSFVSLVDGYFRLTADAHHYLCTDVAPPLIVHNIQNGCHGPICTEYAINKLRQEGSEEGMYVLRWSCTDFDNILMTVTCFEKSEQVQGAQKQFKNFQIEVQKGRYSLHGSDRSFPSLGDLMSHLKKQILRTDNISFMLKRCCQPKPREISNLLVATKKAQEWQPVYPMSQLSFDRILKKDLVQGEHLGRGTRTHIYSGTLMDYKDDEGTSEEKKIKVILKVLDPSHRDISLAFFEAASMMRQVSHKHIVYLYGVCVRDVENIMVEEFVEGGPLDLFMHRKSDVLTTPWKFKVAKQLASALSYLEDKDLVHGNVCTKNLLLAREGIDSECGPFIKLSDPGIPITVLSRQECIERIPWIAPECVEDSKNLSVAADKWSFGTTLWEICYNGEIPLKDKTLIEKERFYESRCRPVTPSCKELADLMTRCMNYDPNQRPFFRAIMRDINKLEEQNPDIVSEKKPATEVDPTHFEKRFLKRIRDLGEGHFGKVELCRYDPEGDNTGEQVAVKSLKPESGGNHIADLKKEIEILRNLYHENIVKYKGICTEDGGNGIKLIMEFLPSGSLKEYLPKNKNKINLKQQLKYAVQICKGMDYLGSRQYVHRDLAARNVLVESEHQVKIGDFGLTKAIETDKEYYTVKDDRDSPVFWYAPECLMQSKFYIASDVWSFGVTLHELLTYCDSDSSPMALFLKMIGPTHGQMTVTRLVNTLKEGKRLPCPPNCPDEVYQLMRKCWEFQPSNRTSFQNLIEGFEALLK
T3 sequence (P52333 whole entry): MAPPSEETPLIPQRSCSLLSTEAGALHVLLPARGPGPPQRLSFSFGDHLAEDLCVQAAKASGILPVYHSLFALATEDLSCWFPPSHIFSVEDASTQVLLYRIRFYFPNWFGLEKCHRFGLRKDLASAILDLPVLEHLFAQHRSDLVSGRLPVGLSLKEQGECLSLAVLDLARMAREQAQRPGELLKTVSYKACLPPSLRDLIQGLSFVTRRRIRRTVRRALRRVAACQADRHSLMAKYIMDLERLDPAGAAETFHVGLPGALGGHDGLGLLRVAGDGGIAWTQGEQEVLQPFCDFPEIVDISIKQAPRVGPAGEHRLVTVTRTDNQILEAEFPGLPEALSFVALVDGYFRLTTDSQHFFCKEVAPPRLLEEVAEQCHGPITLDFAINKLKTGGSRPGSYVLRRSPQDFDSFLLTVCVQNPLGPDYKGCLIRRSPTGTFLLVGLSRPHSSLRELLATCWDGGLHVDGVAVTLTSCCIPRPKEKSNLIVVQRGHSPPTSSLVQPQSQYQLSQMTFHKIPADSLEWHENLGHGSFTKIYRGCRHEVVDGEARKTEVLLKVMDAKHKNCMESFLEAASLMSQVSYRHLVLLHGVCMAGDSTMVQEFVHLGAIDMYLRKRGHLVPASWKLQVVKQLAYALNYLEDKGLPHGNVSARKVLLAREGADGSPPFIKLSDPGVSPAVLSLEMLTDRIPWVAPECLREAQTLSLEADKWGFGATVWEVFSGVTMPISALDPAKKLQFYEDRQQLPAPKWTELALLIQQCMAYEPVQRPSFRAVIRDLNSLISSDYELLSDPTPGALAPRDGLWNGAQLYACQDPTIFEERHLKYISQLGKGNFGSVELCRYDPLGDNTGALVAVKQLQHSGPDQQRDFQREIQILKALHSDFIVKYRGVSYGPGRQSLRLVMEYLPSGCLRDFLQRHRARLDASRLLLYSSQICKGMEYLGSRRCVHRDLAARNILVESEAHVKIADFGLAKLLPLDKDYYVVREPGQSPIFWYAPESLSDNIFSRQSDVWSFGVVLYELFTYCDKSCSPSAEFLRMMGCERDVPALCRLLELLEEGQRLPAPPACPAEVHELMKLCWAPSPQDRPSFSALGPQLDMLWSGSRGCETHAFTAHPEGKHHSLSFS
T4 sequence (P29597 whole entry): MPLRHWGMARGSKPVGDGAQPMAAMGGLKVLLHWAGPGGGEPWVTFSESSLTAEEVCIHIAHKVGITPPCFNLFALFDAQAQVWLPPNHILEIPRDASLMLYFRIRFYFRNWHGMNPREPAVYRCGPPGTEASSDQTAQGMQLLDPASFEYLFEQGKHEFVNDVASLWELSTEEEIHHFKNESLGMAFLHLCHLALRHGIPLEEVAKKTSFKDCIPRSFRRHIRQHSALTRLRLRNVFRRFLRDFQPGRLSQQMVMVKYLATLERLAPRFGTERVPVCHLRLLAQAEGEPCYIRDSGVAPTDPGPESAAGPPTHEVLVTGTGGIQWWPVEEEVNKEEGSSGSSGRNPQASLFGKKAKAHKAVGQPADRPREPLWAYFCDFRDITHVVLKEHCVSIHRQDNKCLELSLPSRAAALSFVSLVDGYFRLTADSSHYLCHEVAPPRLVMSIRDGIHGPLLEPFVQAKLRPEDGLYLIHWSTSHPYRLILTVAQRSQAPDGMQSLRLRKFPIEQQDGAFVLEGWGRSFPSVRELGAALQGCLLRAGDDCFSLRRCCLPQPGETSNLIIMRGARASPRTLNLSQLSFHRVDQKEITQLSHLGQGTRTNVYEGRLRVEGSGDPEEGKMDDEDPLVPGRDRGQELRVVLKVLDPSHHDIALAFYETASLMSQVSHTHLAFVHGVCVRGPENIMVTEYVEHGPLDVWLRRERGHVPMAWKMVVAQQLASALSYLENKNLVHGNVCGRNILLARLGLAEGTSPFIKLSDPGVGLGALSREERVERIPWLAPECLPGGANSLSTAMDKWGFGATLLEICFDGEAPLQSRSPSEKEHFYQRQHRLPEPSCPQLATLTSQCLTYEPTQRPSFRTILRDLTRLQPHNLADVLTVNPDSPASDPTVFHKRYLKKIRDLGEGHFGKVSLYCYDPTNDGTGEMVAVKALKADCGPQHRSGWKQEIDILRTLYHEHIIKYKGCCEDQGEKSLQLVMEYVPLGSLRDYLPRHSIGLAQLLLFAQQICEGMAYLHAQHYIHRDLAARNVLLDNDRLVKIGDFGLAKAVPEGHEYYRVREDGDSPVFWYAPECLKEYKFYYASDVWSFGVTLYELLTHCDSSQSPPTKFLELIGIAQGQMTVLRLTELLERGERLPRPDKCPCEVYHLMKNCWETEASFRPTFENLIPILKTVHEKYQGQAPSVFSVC
T2 sequence (O60674 whole entry): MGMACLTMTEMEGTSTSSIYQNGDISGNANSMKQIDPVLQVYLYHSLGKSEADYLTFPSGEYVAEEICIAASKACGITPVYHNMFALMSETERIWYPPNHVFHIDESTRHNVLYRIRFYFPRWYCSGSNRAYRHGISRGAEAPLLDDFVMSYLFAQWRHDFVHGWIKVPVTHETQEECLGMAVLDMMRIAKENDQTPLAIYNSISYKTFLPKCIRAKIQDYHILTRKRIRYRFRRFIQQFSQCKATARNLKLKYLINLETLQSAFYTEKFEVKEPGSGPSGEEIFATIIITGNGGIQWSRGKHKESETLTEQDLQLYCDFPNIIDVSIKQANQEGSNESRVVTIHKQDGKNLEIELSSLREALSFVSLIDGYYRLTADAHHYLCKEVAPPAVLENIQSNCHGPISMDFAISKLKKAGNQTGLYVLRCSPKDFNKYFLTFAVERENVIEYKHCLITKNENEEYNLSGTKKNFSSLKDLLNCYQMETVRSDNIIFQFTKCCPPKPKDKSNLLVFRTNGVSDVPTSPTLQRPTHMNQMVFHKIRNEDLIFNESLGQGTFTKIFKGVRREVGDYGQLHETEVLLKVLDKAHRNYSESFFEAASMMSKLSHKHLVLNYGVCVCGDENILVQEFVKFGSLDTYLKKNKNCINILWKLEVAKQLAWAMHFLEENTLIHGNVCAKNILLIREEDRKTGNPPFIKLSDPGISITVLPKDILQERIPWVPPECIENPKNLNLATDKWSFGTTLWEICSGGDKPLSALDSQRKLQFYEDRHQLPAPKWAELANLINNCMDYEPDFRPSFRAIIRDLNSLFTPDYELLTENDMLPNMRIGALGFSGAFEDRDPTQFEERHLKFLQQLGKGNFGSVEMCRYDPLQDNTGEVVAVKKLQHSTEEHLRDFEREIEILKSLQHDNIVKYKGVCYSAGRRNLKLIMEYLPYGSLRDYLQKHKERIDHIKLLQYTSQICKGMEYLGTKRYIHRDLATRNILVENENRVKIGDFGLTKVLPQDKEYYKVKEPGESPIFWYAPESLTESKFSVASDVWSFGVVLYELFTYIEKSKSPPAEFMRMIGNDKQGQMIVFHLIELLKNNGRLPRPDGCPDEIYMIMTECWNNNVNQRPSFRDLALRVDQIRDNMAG

Compound | inhibition at 1 µM (Human JAK1 [1]) [%] | inhibition at 1 µM (Human JAK2 [2]) [%] | inhibition at 1 µM (Human JAK3 [3]) [%] | inhibition at 1 µM (Human TYK2 [4]) [%] | inhibition of hind paw edema as compared to the control group (DBA/1J mice; 49th day after the first immunization (end of measurement)) | inhibition of hind paw edema as compared to the control group (DBA/1J mice; from the 31st day after the first immunization onwards) [%] | pIC50 (Human JAK1 [5]) | JAK1 inhibitory activity relative to the racemic mixture (Example 55) (Human JAK1 [5]; from IC50 values 8.5 nM vs 29.3 nM) | pIC50 (Human JAK2 [6]) | pIC50 (Human JAK3 [7]) | pIC50 (Human TYK2 [8]) | inhibition at 1 µM (Human TYK2 [8]; read-out: TYK2 kinase-phosphorylation inhibitory level (% inhibition)) [%]
CN(c1ncnc2[nH]ccc12)[C@H]1CN(C(=O)CC#N)CC12CC2 [Example 5, (R)-3-(7-(methyl(7H-pyrrolo[2,3-d]pyrimidin-4-yl)amino)-5-azaspiro[2.4]heptan-5-yl)-3-oxopropanenitrile] | 95 | 79 | 50 | 82 | about 64% | ≥ 60 | 8.07 | about 3.5 fold | 6.38 | 5.96 | 6.60 | –
CN(c1ncnc2[nH]ccc12)C1CN(C(=O)CC#N)CC12CC2 (racemic) [Example 55, 3-(7-(methyl(7H-pyrrolo[2,3-d]pyrimidin-4-yl)amino)-5-azaspiro[2.4]heptan-5-yl)-3-oxopropanenitrile] | 95 | 53 | 30 | 58 | – | – | 7.53 | – | 6.83 | 6.16 | 7.39 | –
CN(c1ncnc2[nH]ccc12)[C@H]1CN(S(=O)(=O)c2cccc(C#N)c2)CC12CC2 [Example 41, (R)-3-((7-(methyl(7H-pyrrolo[2,3-d]pyrimidin-4-yl)amino)-5-azaspiro[2.4]heptan-5-yl)sulfonyl)benzonitrile] | 99 | 99 | 77 | 97 | – | – | 8.24 | – | 7.23 | 6.96 | 7.61 | –
CN(c1ncnc2[nH]ccc12)[C@@H]1CN(C(=O)CC#N)CC12CC2 [Example 66, (S)-3-(7-(methyl(7H-pyrrolo[2,3-d]pyrimidin-4-yl)amino)-5-azaspiro[2.4]heptan-5-yl)-3-oxopropanenitrile] | 65 | -15 | 17 | -16 | – | – | 6.10 | – | < 6.00 | < 6.00 | < 6.00 | –
CCS(=O)(=O)N1CC(N(C)c2ncnc3[nH]ccc23)C2(CC2)C1 (racemic) [Example 62, N-(5-(ethylsulfonyl)-5-azaspiro[2.4]heptan-7-yl)-N-methyl-7H-pyrrolo[2,3-d]pyrimidin-4-amine] | 95 | 59 | 59 | 67 | – | – | 8.55 | – | 6.37 | < 6.00 | 6.70 | –
CN(c1ncnc2[nH]ccc12)[C@H]1CN(S(=O)(=O)c2ccccc2C#N)CC12CC2 [Example 40, (R)-2-((7-(methyl(7H-pyrrolo[2,3-d]pyrimidin-4-yl)amino)-5-azaspiro[2.4]heptan-5-yl)sulfonyl)benzonitrile] | 94 | 64 | 47 | 72 | – | – | – | – | – | – | – | –
CN(c1ncnc2[nH]ccc12)[C@H]1CN(C(=O)c2ccccc2)CC12CC2 [Example 13, (R)-(7-(methyl(7H-pyrrolo[2,3-d]pyrimidin-4-yl)amino)-5-azaspiro[2.4]heptan-5-yl)(phenyl)methanone] | 81 | -11 | 13 | 30 | – | – | – | – | – | – | – | –
CC(C)COC(=O)N1CC(N(C)c2ncnc3[nH]ccc23)C2(CC2)C1 (stereo not shown) [Example 61, isobutyl 7-(methyl(7H-pyrrolo[2,3-d]pyrimidin-4-yl)amino)-5-azaspiro[2.4]heptane-5-carboxylate] | 85 | -9 | 29 | 22 | – | – | – | – | – | – | – | –
C[C@@H]1CCN(C(=O)CC#N)C[C@@H]1N(C)c1ncnc2[nH]ccc12 [tofacitinib citrate, reference compound] | – | – | – | – | – | – | – | – | – | – | – | 100
CN(c1ncnc2[nH]ccc12)[C@@H]1CN(C(=O)CN=[N+]=[N-])CC12CC2 [Example 65, (S)-2-azido-1-(7-(methyl(7H-pyrrolo[2,3-d]pyrimidin-4-yl)amino)-5-azaspiro[2.4]heptan-5-yl)ethan-1-one] | 41 | 12 | -16 | 14 | – | – | – | – | – | – | – | –
CN(c1ncnc2[nH]ccc12)[C@H]1CN(S(=O)(=O)c2ccc([N+](=O)[O-])cc2)CC12CC2 [Example 45, (R)-N-methyl-N-(5-((4-nitrophenyl)sulfonyl)-5-azaspiro[2.4]heptan-7-yl)-7H-pyrrolo[2,3-d]pyrimidin-4-amine] | 100 | 84 | 60 | 88 | – | – | – | – | – | – | – | –
